Patent US11141410B2 (MERCK SHARP & DOHME CORP., priority 2015, dated 2021)

How the values were obtained:
MRSA COL (MB5393) [1] = assay: TarO Inhibitor/β-Lactam Synergy Assay (growth, OD600); assay type: cell-based; conditions: Staphylococcus aureus, TarO inhibitor alone, >200 μM = 95% growth inhibition not achieved, 20 hours at 37° C., read-out: MITC95 TarO inhibitor alone, Bacteria: SA_MB5393
MRSA COL (MB 5393) = assay: In Vivo Murine Systemic Infection Model; design: species or system Female Balb/C mice; conditions: sc tid; for Bacteria recovered: kidneys 24 h post challenge, neutropenic mice
Description: The murine systemic infection model determines the therapeutic efficacy of TarO inhibitor/β-lactam combinations in vivo. Staphylococci bacteria can cause a systemic infection and establish a robust growth in the kidneys of the infected animal. MRSA COL can establish an infection even in the presence of β-lactam antibiotic due MRSA COL resistance to β-lactam antibiotics.
Female Balb/C mice were rendered neutropenic (immune suppressed) with a single 250 mg/kg intraperitoneal (ip) dose of cyclophosphamide on […]. MRSA COL (MB 5393) was grown for 16 hours in trypticase soy broth (TSB) at 37° C. and 0.5 mL of diluted culture (˜1×10^4 cfu) was administered intraperitoneal (IP). The TarO inhibitor and β-lactam antibiotic were administered alone or in combination by subcutaneous route at 2, 5 and 8 hr. post challenge (sc, tid). Twenty four hours post challenge mice were euthanized and the kidneys harvested, weighed, homogenized and plated to measure the total number of bacteria recovered as colony forming unit (CFU) remaining in compound treated groups as compared to vehicle (saline) or β-lactam antibiotic alone groups (statistical analyses was determined by one way ANOVA).

MRSA COL (MB5393) [2] = assay: TarO Inhibitor/β-Lactam Synergy Assay (growth, OD600); assay type: cell-based, Staphylococcus aureus; conditions: for MITC95 TarO inhibitor + 4 μg/mL IPM; Bacteria: SA_MB5393: in combination with 4 μg/mL imipenem (IPM); for MITC95 TarO inhibitor + 8 μg/mL DCX; Bacteria: SA_MB5393: in combination with 8 μg/mL dicloxacillin (DCX)
In short: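 TarO inhibitors titrated 2-fold from 200 μM (2% DMSO) against MRSA COL, 5×10^5 CFU in CAMHB, with β-lactam fixed at clinical breakpoint (imipenem 4 μg/ml or dicloxacillin 8 μg/ml). Incubated 20 h at 37 °C without shaking; relative growth read as OD600.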

## C[C@H]1[C@@H](c2cccc(C(F)(F)F)c2)OC(=O)N1C(=O)NCc1cncc2ccccc12 [Example 18, (4S,5R)-N-(isoquinolin-4-ylmethyl)-4-methyl-2-oxo-5-[3-(trifluoromethyl)phenyl]-1,3-oxazolidine-3-carboxamide]
MRSA COL (MB5393) [1]
  IC95: > 200 µM
MRSA COL (MB 5393); TarO inhibitor alone 50 mg/kg
  Fold reduction vs. vehicle alone: −0.9
  Bacteria recovered: 6.6×10^7 cfu/g kidney
MRSA COL (MB5393) [2]
  MITC95 TarO inhibitor + 4 μg/mL IPM; Bacteria: SA_MB5393: 0.23 µM
  MITC95 TarO inhibitor + 8 μg/mL DCX; Bacteria: SA_MB5393: 1.95 µM

## C[C@H]1[C@@H](c2cc(C(F)(F)F)cc(C(F)(F)F)c2)OC(=O)N1C(=O)COc1cccc2ccccc12 [Example 91, (4S,5R)-5-[3,5-bis(trifluoro-methyl)phenyl]-4-methyl-3-[(naphthalen-1-yloxy)acetyl]-1,3-oxazolidin-2-one]
MRSA COL (MB5393) [1]
  IC95: > 200 µM
MRSA COL (MB5393) [2]
  MITC95 TarO inhibitor + 4 μg/mL IPM; Bacteria: SA_MB5393: 0.76 µM
  MITC95 TarO inhibitor + 8 μg/mL DCX; Bacteria: SA_MB5393: 4.69 µM

## Cc1ccc2c(n1)N(CCC(=O)N1C(=O)O[C@H](c3cc(F)cc(C(F)(F)F)c3)[C@@H]1C)CCO2 [Example 92, (4S,5R)-5-(3-fluoro-5-(trifluoromethyl)phenyl)-4-methyl-3-(3-(6-methyl-2,3-dihydro-4H-pyrido[3,2-b][1,4]oxazin-4-yl)propanoyl)oxazolidin-2-one]
MRSA COL (MB5393) [1]
  IC95: > 200 µM
MRSA COL (MB5393) [2]
  MITC95 TarO inhibitor + 4 μg/mL IPM; Bacteria: SA_MB5393: 0.51 µM
  MITC95 TarO inhibitor + 8 μg/mL DCX; Bacteria: SA_MB5393: 7.50 µM

## COc1cc([C@H]2OC(=O)N(C(=O)NCc3cncc4cccnc34)C[C@H]2C)cc(C(F)(F)F)c1 [Example 94, (5R,6S)-6-[3-methoxy-5-(trifluoromethyl)phenyl]-5-methyl-N-(1,6-naphthyridin-8-ylmethyl)-2-oxo-1,3-oxazinane-3-carboxamide]
MRSA COL (MB5393) [1]
  IC95: > 200 µM
MRSA COL (MB5393) [2]
  MITC95 TarO inhibitor + 4 μg/mL IPM; Bacteria: SA_MB5393: 3.52 µM
  MITC95 TarO inhibitor + 8 μg/mL DCX; Bacteria: SA_MB5393: 44 µM

## C[C@@H]1NN(C(=O)NCc2cncc3ccccc23)C(=O)O[C@@H]1c1cc(F)cc(C(F)(F)F)c1 [Example 95]
MRSA COL (MB5393) [1]
  IC95: > 200 µM
MRSA COL (MB5393) [2]
  MITC95 TarO inhibitor + 4 μg/mL IPM; Bacteria: SA_MB5393: 5.21 µM
  MITC95 TarO inhibitor + 8 μg/mL DCX; Bacteria: SA_MB5393: 4.17 µM

## COc1cc(C(F)(F)F)nc([C@@H]2OC(=O)N(C(=O)NCc3cncc4ccccc34)[C@H]2C)n1 [Example 96, (4S,5R)—N-(isoquinolin-4-ylmethyl)-5-(4-methoxy-6-(trifluoromethyl)pyrimidin-2-yl)-4-methyl-2-oxooxazolidine-3-carboxamide]
MRSA COL (MB5393) [1]
  IC95: > 200 µM
MRSA COL (MB5393) [2]
  MITC95 TarO inhibitor + 4 μg/mL IPM; Bacteria: SA_MB5393: 4.17 µM
  MITC95 TarO inhibitor + 8 μg/mL DCX; Bacteria: SA_MB5393: 25 µM

## C[C@H]1[C@@H](c2cc(N3CCC(F)(F)C3)cc(C(F)(F)F)c2)OC(=O)N1C(=O)NCc1cccc2cncnc12 [Example 97, (4S,5R)-5-(3-(3,3-difluoropyrrolidin-1-yl)-5-(trifluoromethyl)phenyl)-4-methyl-2-oxo-N-(quinazolin-8-ylmethyl)oxazolidine-3-carboxamide]
MRSA COL (MB5393) [1]
  IC95: > 200 µM
MRSA COL (MB5393) [2]
  MITC95 TarO inhibitor + 4 μg/mL IPM; Bacteria: SA_MB5393: 0.42 µM
  MITC95 TarO inhibitor + 8 μg/mL DCX; Bacteria: SA_MB5393: 3.32 µM

## C[C@H]1[C@@H](c2cc(N(C)C)cc(C(F)(F)F)c2)OC(=O)N1C(=O)NCc1cncc2ccccc12 [Example 98, (4S,5R)-5-[3-(dimethylamino)-5-(trifluoromethyl)phenyl]-N-(isoquinolin-4-ylmethyl)-4-methyl-2-oxo-1,3-oxazolidine-3-carboxamide]
MRSA COL (MB5393) [1]
  IC95: > 200 µM
MRSA COL (MB5393) [2]
  MITC95 TarO inhibitor + 4 μg/mL IPM; Bacteria: SA_MB5393: 0.01 µM
  MITC95 TarO inhibitor + 8 μg/mL DCX; Bacteria: SA_MB5393: 0.41 µM

## O=C(NCc1cncc2ccccc12)N1C(=O)O[C@H](c2cc(F)cc(C(F)(F)F)c2)[C@@H]1CCO [Example 99, (4S,5R)-5-(3-fluoro-5-(trifluoromethyl)phenyl)-4-(2-hydroxyethyl)-N-(isoquinolin-4-ylmethyl)-2-oxooxazolidine-3-carboxamide]
MRSA COL (MB5393) [1]
  IC95: > 200 µM
MRSA COL (MB5393) [2]
  MITC95 TarO inhibitor + 4 μg/mL IPM; Bacteria: SA_MB5393: 18.75 µM
  MITC95 TarO inhibitor + 8 μg/mL DCX; Bacteria: SA_MB5393: 100 µM

## C[C@H]1[C@@H](c2cc(C(F)(F)F)cc(C(F)(F)F)c2)OC(=O)N1C(=O)/C=C/c1cncc2ccccc12 [Example 100, (4S,5R)-5-(3,5-bis(trifluoromethyl)phenyl)-3-((E)-3-(isoquinolin-4-yl)acryloyl)-4-methyloxazolidin-2-one]
MRSA COL (MB5393) [1]
  IC95: > 200 µM
MRSA COL (MB5393) [2]
  MITC95 TarO inhibitor + 4 μg/mL IPM; Bacteria: SA_MB5393: 1.60 µM

## O=C(CCc1cncc2ccccc12)N1C(=O)O[C@H](c2cc(C(F)(F)F)cc(C(F)(F)F)c2)C12CC2 [Example 101, (R)-7-(3,5-bis(trifluoromethyl)phenyl)-4-(3-(isoquinolin-4-yl)propanoyl)-6-oxa-4-azaspiro[2.4]heptan-5-one]
MRSA COL (MB5393) [1]
  IC95: > 200 µM
MRSA COL (MB5393) [2]
  MITC95 TarO inhibitor + 4 μg/mL IPM; Bacteria: SA_MB5393: 0.20 µM

## C[C@@H](O)[C@H]1C(=O)N2C(C(=O)O)=C(SCCN=CN)C[C@H]12 [Imipenem, imipenem, reference compound]
MRSA COL (MB 5393); Imipenem alone 5 mg/kg
  Fold reduction vs. vehicle alone: 4.6
  Bacteria recovered: 1.3 × 10^7 cfu/g kidney
MRSA COL (MB5393) [2]; β-lactam alone, MRSA COL
  MITC95 concentration of β-lactam antibiotic alone: 32 µg/mL
